PMC9395488, “First-in-human study of IM156, a novel potent biguanide oxidative phosphorylation (OXPHOS) inhibitor, in patients with advanced solid tumors” (Investigational New Drugs, 2022)

Test system: patients with advanced solid tumors
Assay: First-in-human phase 1 dose-escalation study: safety, DLTs, adverse events
Assay type: in vivo
From the text: This multicenter first-in-human dose-escalation phase 1 study (clinicaltrials.gov identifier: NCT03272256) was designed to determine the MTD or RP2D and to evaluate the safety and tolerability of IM156. Secondary endpoints included PK characteristics, efficacy assessment (objective response rate [ORR], disease control rate [DCR], duration of response [DoR] and progression-free survival [PFS]). Furthermore, exploratory objectives included identification and profiling of IM156 metabolites, evaluations of exploratory PD markers of IM156, and evaluations of any potential relationship between putative biomarkers and safety/efficacy parameters of IM156. The study was conducted in accordance with Good Clinical Practice, the International Council for Harmonisation, and guidelines governing clinical study conduct and the ethical principles originating from the Declaration of Helsinki. The study was approved by each Institutional Review Board and patients provided written informed consent. Patients were enrolled at three sites in South Korea.
The initial dose and schedule of IM156 was chosen based on animal toxicology studies. […] IM156 was administered in the fasted state, with no food for at least 2 h before and 1 h after dosing.
Three DLT-evaluable patients were enrolled at each dose level. If there were no DLTs or other prohibitive adverse events (AEs), the Safety Committee was allowed to recommend escalation to the next highest dose level. If 1 DLT occurred in the first 3 DLT-evaluable patients, enrollment in that cohort was expanded to an additional 3 DLT-evaluable patients; if ≥ 2 DLTs were reported in a cohort, that dose was considered above the MTD.
Safety was assessed through vital signs, weight, laboratory assessments, physical examinations, electrocardiogram, and reporting of AEs as graded by the National Cancer Institute’s Common Terminology Criteria for Adverse Events v4.03 (NCI-CTCAE).
DLTs were defined as the following AEs if they were attributed as related to IM156: asymptomatic grade 4 neutropenia lasting for ≥ 5 days; febrile neutropenia, regardless of grade; grade 4 thrombocytopenia or grade 3 thrombocytopenia with bleeding; any grade ≥ 3 non-hematologic AE (except grade 3 hypertension and grade 3 nausea, vomiting or diarrhea for which proper measures for prevention and treatment were not implemented, and alopecia); blood lactate levels > 5 mmol; grade ≥ 2 AE prohibiting dosing of IM156 for ≥ 21 continuous days except for alterations in serum calcium or phosphorus levels. The safety analysis includes all patients who received at least one dose of study drug.
The safety population was defined as all patients who received at least one dose of IM156. The PK population was not defined in the protocol but included all patients with sufficient PK data to perform adequate PK modeling. The efficacy population included all patients who underwent at least one tumor imaging assessment while receiving IM156. Safety was assessed using descriptive statistics (e.g., DLTs, AEs, laboratory tests, physical examination, 12-lead ECG). The incidence and number of events were reported for the DLTs observed in Cycle 1 per dose group. […] Adverse events and TRAEs were standardized with the System Organ Class and the Preferred Term using the Medical Dictionary for Regulatory Activities v23.0. In addition, TEAEs, serious adverse events (SAEs), TEAE severity, and TEAEs leading to withdrawal were presented by dose group. Efficacy data were to be presented by Waterfall and Swim Lane plots. Time to event endpoints (e.g., DoR, PFS) were determined using Kaplan–Meier estimations with the median value for each endpoint summarized.

[1] = DL5 1200 mg orally every other day (n=3)

With `NC(=Nc1ccc(OC(F)(F)F)cc1)N=C(N)N1CCCC1` [IM156] the “TEAE Dry skin grade 1” value [1] was 0, the “TEAE Dry skin grade 2” value [1] was 0 and the “TEAE Dry skin grade 3” value [1] was 0. For the same molecule, the “TEAE Dry skin grade 4” value [1] was 0, the “TEAE Flank pain grade 1” value [1] was 0 and the “TEAE Flank pain grade 2” value [1] was 0. The “TEAE Flank pain grade 3” value [1] was 0, the “TEAE Flank pain grade 4” value [1] was 0 and the “TEAE Hypertension grade 1” value [1] was 0. For the same molecule, the “TEAE Hypertension grade 2” value [1] was 0, the “TEAE Hypertension grade 3” value [1] was 0 and the “TEAE Hypertension grade 4” value [1] was 0. For the same molecule, the “TEAE Hypotension grade 1” value [1] was 0, the “TEAE Hypotension grade 2” value [1] was 1 and the “TEAE Hypotension grade 3” value [1] was 0. The “TEAE Hypotension grade 4” value [1] was 0, the “TEAE Insomnia grade 1” value [1] was 0 and the “TEAE Insomnia grade 2” value [1] was 0. For the same molecule, the “TEAE Insomnia grade 3” value [1] was 0, the “TEAE Insomnia grade 4” value [1] was 0 and the “TEAE Pain in extremity grade 1” value [1] was 0. The “TEAE Pain in extremity grade 2” value [1] was 0, the “TEAE Pain in extremity grade 3” value [1] was 0 and the “TEAE Pain in extremity grade 4” value [1] was 0. For the same molecule, the “TEAE Pruritus grade 1” value [1] was 0, the “TEAE Pruritus grade 2” value [1] was 0 and the “TEAE Pruritus grade 3” value [1] was 0. The “TEAE Pruritus grade 4” value [1] was 0, the “TEAE Psychiatric disorders grade 1” value [1] was 0 and the “TEAE Psychiatric disorders grade 2” value [1] was 0. The “TEAE Psychiatric disorders grade 3” value [1] was 0, the “TEAE Psychiatric disorders grade 4” value [1] was 0 and the “TEAE Purpura grade 1” value [1] was 0. For the same molecule, the “TEAE Purpura grade 2” value [1] was 0, the “TEAE Purpura grade 3” value [1] was 0 and the “TEAE Purpura grade 4” value [1] was 0. The “TEAE Urinary retention grade 1” value [1] was 0, the “TEAE Urinary retention grade 2” value [1] was 0 and the “TEAE Urinary retention grade 3” value [1] was 0. The “TEAE Urinary retention grade 4” value [1] was 0, the “TEAE Urinary tract disorder grade 1” value [1] was 0 and the “TEAE Urinary tract disorder grade 2” value [1] was 0. The “TEAE Urinary tract disorder grade 3” value [1] was 0, the “TEAE Urinary tract disorder grade 4” value [1] was 0 and the “TEAE Abdominal discomfort, grade 1” value (DL6 800 mg QD (n=3)) was 1. The “TEAE Alanine aminotransferase increased, grade 1” value (DL6 800 mg QD (n=3)) was 1, the “TEAE Aspartate aminotransferase increased, grade 1” value (DL6 800 mg QD (n=3)) was 1 and the “TEAE Blood lactic acid increased, grade 1” value (DL6 800 mg QD (n=3)) was 1. The “TEAE Constipation, grade 1” value (DL6 800 mg QD (n=3)) was 2, the “TEAE Decreased appetite, grade 1” value (DL6 800 mg QD (n=3)) was 1 and the “TEAE Diarrhoea, grade 1” value (DL6 800 mg QD (n=3)) was 3. The “TEAE Fatigue, grade 1” value (DL6 800 mg QD (n=3)) was 1, the “TEAE Gastrointestinal pain, grade 1” value (DL6 800 mg QD (n=3)) was 1 and the “TEAE Nausea, grade 1” value (DL6 800 mg QD (n=3)) was 2. The “TEAE Toothache, grade 1” value (DL6 800 mg QD (n=3)) was 1, the “TEAE Vomiting, grade 1” value (DL6 800 mg QD (n=3)) was 1 and the “TRAE Abdominal Pain, > G3 (patients)” value (DL6 800 mg QD, N = 3) was 0. For the same molecule, the “TRAE Abdominal Pain, All grades (patients)” value (DL6 800 mg QD, N = 3) was 0, the “TRAE Blood Lactic Acid increased, > G3 (patients)” value (DL6 800 mg QD, N = 3) was 0 and the “TRAE Blood Lactic Acid increased, All grades (patients)” value (DL6 800 mg QD, N = 3) was 1. The “TRAE Constipation, > G3 (patients)” value (DL6 800 mg QD, N = 3) was 0, the “TRAE Constipation, All grades (patients)” value (DL6 800 mg QD, N = 3) was 1 and the “TRAE Decreased appetite, > G3 (patients)” value (DL6 800 mg QD, N = 3) was 0. For the same molecule, the “TRAE Decreased appetite, All grades (patients)” value (DL6 800 mg QD, N = 3) was 0, the “TRAE Diarrhoea, > G3 (patients)” value (DL6 800 mg QD, N = 3) was 0 and the “TRAE Diarrhoea, All grades (patients)” value (DL6 800 mg QD, N = 3) was 3. The “TRAE Fatigue, > G3 (patients)” value (DL6 800 mg QD, N = 3) was 0, the “TRAE Fatigue, All grades (patients)” value (DL6 800 mg QD, N = 3) was 0 and the “TRAE Insomnia, > G3 (patients)” value (DL6 800 mg QD, N = 3) was 0. The “TRAE Insomnia, All grades (patients)” value (DL6 800 mg QD, N = 3) was 0, the “TRAE Nausea, > G3 (patients)” value (DL6 800 mg QD, N = 3) was 0 and the “TRAE Nausea, All grades (patients)” value (DL6 800 mg QD, N = 3) was 2. For the same molecule, the “TRAE Vomiting, > G3 (patients)” value (DL6 800 mg QD, N = 3) was 0, the “TRAE Vomiting, All grades (patients)” value (DL6 800 mg QD, N = 3) was 1 and the “TEAE Adrenal insufficiency grade 1” value (DL6 800 mg orally daily (n=3)) was 0. For the same molecule, the “TEAE Adrenal insufficiency grade 2” value (DL6 800 mg orally daily (n=3)) was 0, the “TEAE Adrenal insufficiency grade 3” value (DL6 800 mg orally daily (n=3)) was 0 and the “TEAE Adrenal insufficiency grade 4” value (DL6 800 mg orally daily (n=3)) was 0. For the same molecule, the “TEAE Anaemia grade 1” value (DL6 800 mg orally daily (n=3)) was 0, the “TEAE Anaemia grade 2” value (DL6 800 mg orally daily (n=3)) was 0 and the “TEAE Anaemia grade 3” value (DL6 800 mg orally daily (n=3)) was 0. For the same molecule, the “TEAE Anaemia grade 4” value (DL6 800 mg orally daily (n=3)) was 0, the “TEAE Appendicitis perforated grade 1” value (DL6 800 mg orally daily (n=3)) was 0 and the “TEAE Appendicitis perforated grade 2” value (DL6 800 mg orally daily (n=3)) was 0. For the same molecule, the “TEAE Appendicitis perforated grade 3” value (DL6 800 mg orally daily (n=3)) was 0, the “TEAE Appendicitis perforated grade 4” value (DL6 800 mg orally daily (n=3)) was 0 and the “TEAE Back pain grade 1” value (DL6 800 mg orally daily (n=3)) was 0. The “TEAE Back pain grade 2” value (DL6 800 mg orally daily (n=3)) was 0, the “TEAE Back pain grade 3” value (DL6 800 mg orally daily (n=3)) was 0 and the “TEAE Back pain grade 4” value (DL6 800 mg orally daily (n=3)) was 0. The “TEAE Cystitis grade 1” value (DL6 800 mg orally daily (n=3)) was 0, the “TEAE Cystitis grade 2” value (DL6 800 mg orally daily (n=3)) was 0 and the “TEAE Cystitis grade 3” value (DL6 800 mg orally daily (n=3)) was 0. For the same molecule, the “TEAE Cystitis grade 4” value (DL6 800 mg orally daily (n=3)) was 0, the “TEAE Dry skin grade 1” value (DL6 800 mg orally daily (n=3)) was 0 and the “TEAE Dry skin grade 2” value (DL6 800 mg orally daily (n=3)) was 0. The “TEAE Dry skin grade 3” value (DL6 800 mg orally daily (n=3)) was 0, the “TEAE Dry skin grade 4” value (DL6 800 mg orally daily (n=3)) was 0 and the “TEAE Flank pain grade 1” value (DL6 800 mg orally daily (n=3)) was 0. The “TEAE Flank pain grade 2” value (DL6 800 mg orally daily (n=3)) was 0, the “TEAE Flank pain grade 3” value (DL6 800 mg orally daily (n=3)) was 0 and the “TEAE Flank pain grade 4” value (DL6 800 mg orally daily (n=3)) was 0. The “TEAE Hypertension grade 1” value (DL6 800 mg orally daily (n=3)) was 0, the “TEAE Hypertension grade 2” value (DL6 800 mg orally daily (n=3)) was 0 and the “TEAE Hypertension grade 3” value (DL6 800 mg orally daily (n=3)) was 0. For the same molecule, the “TEAE Hypertension grade 4” value (DL6 800 mg orally daily (n=3)) was 0, the “TEAE Hypotension grade 1” value (DL6 800 mg orally daily (n=3)) was 0 and the “TEAE Hypotension grade 2” value (DL6 800 mg orally daily (n=3)) was 0. For the same molecule, the “TEAE Hypotension grade 3” value (DL6 800 mg orally daily (n=3)) was 0, the “TEAE Hypotension grade 4” value (DL6 800 mg orally daily (n=3)) was 0 and the “TEAE Insomnia grade 1” value (DL6 800 mg orally daily (n=3)) was 1. The “TEAE Insomnia grade 2” value (DL6 800 mg orally daily (n=3)) was 0, the “TEAE Insomnia grade 3” value (DL6 800 mg orally daily (n=3)) was 0 and the “TEAE Insomnia grade 4” value (DL6 800 mg orally daily (n=3)) was 0. For the same molecule, the “TEAE Pain in extremity grade 1” value (DL6 800 mg orally daily (n=3)) was 0, the “TEAE Pain in extremity grade 2” value (DL6 800 mg orally daily (n=3)) was 0 and the “TEAE Pain in extremity grade 3” value (DL6 800 mg orally daily (n=3)) was 0.
